Measured values reported in patent US20220323406A1, “METHODS AND COMPOSITIONS FOR DIFFERENTIATING STEM CELLS” (Massachusetts Institute of Technology, priority 2019, published 2022).

Tests used:
Conditions in all cases: primary screen
[1] = tested on: ENR+CD organoids (ISC to Paneth cell differentiation); assay: Primary screen: basal (non-stimulated) lysozyme secretion LYZ.NS, 2.5-D 384-well ENR+CD organoid differentiation; assay type: cell-based, mouse
Excerpt: (§1) High-throughput screening.

[2] = tested on: ENR+CD organoids (ISC to Paneth cell differentiation); assay: Primary screen: CCh-stimulated lysozyme secretion LYZ.S, 2.5-D 384-well ENR+CD organoid differentiation; assay type: cell-based, mouse
Excerpt: as §1

[3] = tested on: ENR+CD organoids; assay: Primary screen: ATP (CellTiter-Glo 3D, CTG) cell number/viability, 2.5-D 384-well ENR+CD organoids;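 note: compounds given at plating and again on day 3 over a 6-day differentiation from ENR+CV stem-cell-enriched precursors, ATP measured on day 6, plate median as control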

Structure (SMILES)	Dose.FC.LYZ.NS ([1]; dose 0.08 uM)	Z.LYZ.NS (standard z score) ([1]; dose 0.08 uM)	Dose.FC.LYZ.NS ([1]; dose 0.40 uM)	Z.LYZ.NS (standard z score) ([1]; dose 0.40 uM)	Dose.FC.LYZ.NS ([1]; dose 2.00 uM)	Z.LYZ.NS (standard z score) ([1]; dose 2.00 uM)	Dose.FC.LYZ.NS ([1]; dose 10.00 uM)	Z.LYZ.NS (standard z score) ([1]; dose 10.00 uM)	Dose.FC.LYZ.S ([2]; dose 0.08 uM)	Dose.FC.LYZ.S ([2]; dose 0.40 uM)	Dose.FC.LYZ.S ([2]; dose 2.00 uM)	Dose.FC.LYZ.S ([2]; dose 10.00 uM)	Dose.FC.CTG ([3]; dose 0.08 uM)	Dose.FC.CTG ([3]; dose 0.40 uM)	Dose.FC.CTG ([3]; dose 2.00 uM)	Dose.FC.CTG ([3]; dose 10.00 uM)	Z.CTG (standard z score) ([3]; dose 0.08 uM)	Z.CTG (standard z score) ([3]; dose 0.40 uM)	Z.CTG (standard z score) ([3]; dose 2.00 uM)	Z.CTG (standard z score) ([3]; dose 10.00 uM)
COc1ccc(C(=O)N2CCCC2=O)cc1 [Aniracetam]	0.089 log2 fold change	0.774	0.056 log2 fold change	0.486	0.032 log2 fold change	0.277	0.012 log2 fold change	0.105	0.043 log2 fold change	0.148 log2 fold change	0.005 log2 fold change	−0.028 log2 fold change	−0.088 log2 fold change	0.112 log2 fold change	0.054 log2 fold change	0.019 log2 fold change	–	–	–	–
N#CC1(c2ccc(NC(=O)c3cccnc3NCc3ccncc3)cc2)CCCC1 [Apatinib]	0.103 log2 fold change	0.897	0.038 log2 fold change	0.327	0.076 log2 fold change	0.660	0.012 log2 fold change	0.101	0.173 log2 fold change	0.142 log2 fold change	0.112 log2 fold change	0.075 log2 fold change	0.223 log2 fold change	0.302 log2 fold change	0.270 log2 fold change	0.218 log2 fold change	–	–	–	–
O=c1cc(-c2ccc(O)cc2)oc2cc(O)cc(O)c12 [Apigenin]	0.132 log2 fold change	1.147	0.130 log2 fold change	1.131	0.232 log2 fold change	2.021	0.097 log2 fold change	0.847	0.192 log2 fold change	0.165 log2 fold change	0.196 log2 fold change	0.098 log2 fold change	0.246 log2 fold change	0.214 log2 fold change	0.315 log2 fold change	0.026 log2 fold change	–	–	–	–
COc1ccc(-n2nc(C(N)=O)c3c2C(=O)N(c2ccc(N4CCCCC4=O)cc2)CC3)cc1 [Apixaban]	0.004 log2 fold change	0.035	−0.030 log2 fold change	−0.260	0.029 log2 fold change	0.253	−0.082 log2 fold change	−0.712	0.081 log2 fold change	0.029 log2 fold change	0.051 log2 fold change	−0.096 log2 fold change	−0.089 log2 fold change	0.111 log2 fold change	−0.060 log2 fold change	−0.077 log2 fold change	–	–	–	–
O=C1C(=O)N(Cc2ccc(Cl)c(Cl)c2)c2ccccc21 [Apoptosis Activator 2]	0.149 log2 fold change	1.302	0.033 log2 fold change	0.290	−0.006 log2 fold change	−0.049	−0.199 log2 fold change	−1.734	0.132 log2 fold change	0.073 log2 fold change	−0.009 log2 fold change	−0.252 log2 fold change	0.304 log2 fold change	0.262 log2 fold change	0.082 log2 fold change	−0.158 log2 fold change	0.725	0.626	0.195	−0.378
